Source: US20100047327A1, “Adjuvant for Transdermal or Transmucosal Administration and Pharmaceutical Preparation Containing the Same” (priority 2007, published 2010)

Key:
[1] = test system: MHC Class II molecule of the lymph cell; test: Expression of MHC Class II molecule of lymph cells by flow cytometry after transdermal administration of adjuvant; assay type: in vivo, BALB/c mouse; conditions: FIG. 1; for number of the lymph cells expressing an MHC Class II molecule: 50 μL of acetone solution (50%) applied transdermally to shaved abdomen, lymph node five days later
[2] = test system: OVA specific IgG antibody; test: OVA specific IgG antibody titer by ELISA, intracutaneous OVA plus transdermal adjuvant; assay type: in vivo, BALB/c mouse; conditions: for Antibody titer (×10^4): OVA 10 μg/head intracutaneous, then 25 μL adjuvant applied transdermally, dosing at 0, 2, 4 weeks, data after five weeks; for immune response of the antigen IgG: intracutaneous OVA plus transdermal adjuvant on intact skin, in words
Procedure: OVA (an antigen: Ovalbumin, Sigma Company) was prepared by dissolving it in physiological saline to give 10 μg/head, and to the OVA alone group, 25 μL of OVA aqueous solution was administered intracutaneously. To the group in which various kinds of adjuvants (lauryl alcohol, oleyl alcohol, isostearyl alcohol, octyl dodecanol, polyethylene glycol monolaurate and Freund complete adjuvant (FCA)) were used in combination, immediately after OVA solution was administered intracutaneously, 25 μL of each adjuvant solution was administered (applied) transdermally on the abdominal skin surface. Administration was carried out 0, 2 and 4 weeks later, and blood collection was carried out 2, 4 and 5 weeks later, and OVA specific IgG antibody titer after 2, 4 and 5 weeks was measured by ELISA.

[3] = Skin irritation score, intracutaneous versus transdermal administration; assay type: in vivo, BALB/c mouse; design: Skin irritation score Intracutaneous administration: key to the marks not given beside the values; conditions: for Skin irritation score Transdermal administration: 50 μL of acetone solution (50%) applied transdermally
[4] = test system: OVA specific IgG antibody; test: OVA specific IgG antibody titer by ELISA, OVA/LA emulsion with microneedle, skin abrading or iontophoresis; assay type: in vivo, BALB/c mouse; conditions: FIG. 2
Procedure: OVA was prepared to give 100 μg/head, and to the OVA alone group, OVA aqueous solution was applied, and in the group in which lauryl alcohol (LA) was used in combination, the solution in which OVA solution, LA and Tween 20 (emulsifier) was mixed in the ratio of 1:1:0.01 which was emulsified was prepared and used. In the microneedle application group, 1 cm^2 of a microneedle (needle length: about 200 μm, 400 needles/cm^2) was punctured to abdominal skin that had been shaved beforehand, thereafter 50 μL of the above-mentioned emulsion solution was applied immediately. In addition, in skin abrading treatment group, skin was abraded five times using 3M RED Dot™ 2236 instead of a microneedle, thereafter 50 μL of the emulsion solution was applied. In iontophoresis application group, 50 μL of the emulsion solution was applied to shaved abdominal skin, thereafter an iontophoresis preparation (a non-woven fabric preparation: Ag, Ag/AgCl 1 cm^2) in which physiological saline was impregnated to the non-woven fabric was affixed in the applied part, and a direct current (0.4 mA/patch) was applied for one hour. Administration was carried out 0, 2 and 4 weeks later, and blood collection was carried out 2, 4 and 5 weeks later, and OVA specific IgG antibody titers were measured by ELISA.

[5] = test system: OVA; test: Antibody titer after oral mucosal administration of OVA plus LA emulsion; assay type: in vivo, BALB/c mouse; conditions: OVA 2500 μg/head, LA groups (20) and (50), boost after one week, blood after two weeks; FIG. 7
[6] = test system: OVA specific IgG antibody; test: OVA specific IgG antibody titer, microneedle coated with antigen emulsion; assay type: in vivo, hairless rat; conditions: microneedle coated with emulsion antigen solution:oil or alcohol:Tween 80 1:1:0.01, OVA 2 mg/patch, two hours; FIG. 4
Procedure: OVA was prepared in the abdomen of the male hairless rat of seven to eight weeks old to give 2 mg/patch, and in the microneedle (OVA+5% polyvinyl alcohol) group, the needle part of the microneedle was coated with an antigen and 5% polyvinyl alcohol liquid [mixed in antigen solution:10% polyvinyl alcohol=1:1], and punctured for two hours. In addition, in microneedle (OVA+olive oil) or (OVA+lauryl alcohol) group, emulsion [antigen solution:olive oil or lauryl alcohol:surfactant (Tween 80)=1:1:0.01] was coated on the needle of the microneedle and punctured it for two hours. Administration was carried out 0, 2 and 4 weeks later, and blood collection was carried out 2, 4 and 5 weeks later, and OVA specific IgG antibody titers were measured by ELISA.

[7] = test system: OVA specific IgG antibody; test: as above; assay type: in vivo, BALB/c mouse; conditions: microneedle coated with emulsion antigen solution:alcohol:Tween 80 1:1:0.01, OVA 0.1 mg/patch, two hours; FIG. 5
Procedure: In addition, in microneedle (OVA+lauryl alcohol or OVA+oleyl alcohol) group, emulsion [antigen solution:lauryl alcohol or oleyl alcohol:surfactant (Tween 80)=1:1:0.01] was coated on the needle of the microneedle and punctured it for two hours. Administration was carried out 0, 2 and 4 weeks later, and blood collection was carried out 2, 4 and 5 weeks later, and OVA specific IgG antibody titers were measured by ELISA.

[8] = test system: OVA specific IgG antibody; test: OVA specific IgG antibody titer, antigen-coated microneedle after lauryl alcohol applied to skin; assay type: in vivo, hairless rat; conditions: LA applied to skin before puncture with OVA-coated microneedle (2 mg/patch, two hours); FIG. 3
Procedure: OVA was prepared in the abdomen of the male hairless rat of seven to eight weeks old to give 2 mg/patch, and in the microneedle group, the needle part of the microneedle was coated with an antigen and 5% polyvinyl alcohol liquid, and physiological saline was dropped on the skin side, and punctured for two hours. In addition, in microneedle+lauryl alcohol group, lauryl alcohol was applied to skin beforehand, physiological saline was dropped on the skin side, and the needle of the microneedle coated with the above-described antigen and 5% polyvinyl alcohol liquid was punctured for two hours. Administration was carried out 0, 2 and 4 weeks later, and blood collection was carried out 2, 4 and 5 weeks later, and OVA specific IgG antibody titers were measured by ELISA.

[9] = test system: influenza H3N2; test: Antibody titer after transnasal administration of influenza H3N2 antigen plus LA; conditions: influenza H3N2 1 μg/head, antigen solution:LA:Tween 80 9:1:0.05; FIG. 6
Procedure: To a male BALB/c mouse of seven to eight weeks old, under inhalation anesthesia (Sevofrane) with matching with breathing, 50 μL of antigen (influenza H3N2 (Biogenesis company): 1 μg/head) was administered to a nose by dripping (transnasal (antigen)). The antigen+LA, [mixed in antigen solution:LA:surfactant (Tween 80)=9:1:0.05] was administered to a nose by dripping (transnasal (antigen+LA)).
In addition, in the intracutaneous treatment group, the abdomen was shaved under Nembutal anesthesia, 50 mL of antigen (influenza H3N2: 0.07 μg/head) was administered intracutaneously (intracutaneous (antigen)). The antigen+LA, [mixed in antigen solution:LA:surfactant (Tween 80)=1:1:0.01] was administered intracutaneously (intracutaneous (antigen+LA)). Boost was made in the same condition 2 and 4 weeks after the first time administration, and blood was collected from fundus after 2, 4 and 5 weeks and antibody titers were measured.

Row | Compound | number of the lymph cells expressing an MHC Class II molecule [1] | Antibody titer (×10^4) [2] | Skin irritation score Transdermal administration [3] | also measured
1 | CC(C)CCCCCCCCCCCCCCCO [Isostearyl alcohol, isostearyl alcohol] | remarkable increase | 1.3 ×10^4 | not detected | –
2 | CCCCCCCCCCCCO [Lauryl alcohol, lauryl alcohol] | remarkable increase | 2.1 ×10^4 | not detected | adjuvant effect (MHC Class II expression), comparison among adjuvants ([1]; transdermal administration): most remarkable; antigen specific IgG, iontophoresis (IP+LA) ([4]; OVA 100 μg/head, OVA:LA:Tween 20 1:1:0.01 emulsion, 0.4 mA/patch for one hour, four weeks later): highest immune response; antigen specific IgG, skin abrading pre-treatment (abrading+LA) ([4]; OVA 100 μg/head, emulsion applied after abrading, four weeks later): high immune response; antigen specific IgG, microneedle (microneedle+LA) ([4]; OVA 100 μg/head, emulsion applied after microneedle puncture, four weeks later): high immune response; antibody titer compared to antigen administered alone ([4]; lauryl alcohol used together with OVA): significant increase; antibody titer, oral mucosal administration [5]: increase of the antibody titer was observed depending on the LA concentration; OVA specific IgG antibody titer [6]: remarkably increased; OVA specific IgG antibody titer [7]: remarkably increased; immune response of the antigen IgG [2]: highest immune response; OVA specific IgG antibody titer [8]: remarkably increased; antibody titer, transnasal (antigen+LA) versus antigen alone [9]: increase of the antibody titer was observed
3 | CCCCCCCCCCC(CO)CCCCCCCC (stereo not drawn) [Octyl dodecanol, octyl dodecanol] | – | 0.6 ×10^4 | not detected | –
4 | CCCCCCCC/C=C\CCCCCCCCO [Oleyl alcohol, oleyl alcohol] | remarkable increase | 2.1 ×10^4 | – | OVA specific IgG antibody titer [7]: remarkably increased; immune response of the antigen IgG [2]: highest immune response; Skin irritation score Intracutaneous administration ([3]; mouse, in vivo): +++
5 | CCCCCCCC/C=C\CCCCCCCC(=O)O [oleic acid] | remarkable increase | – | – | –
6 | polyethylene glycol monolaurate | – | 0.9 ×10^4 | not detected | –
7 | sorbitan monolaurate | remarkable increase | – | not detected | –
8 | sorbitan monooleate | remarkable increase | – | – | –
